Results from US20070004660A1, “Synergistic Modulation of Flt3 Kinase Using Alkylquinolines and Alkylquinazolines” (priority 2005, published 2007).
pIC50: −log10 of the molar value.

Target: T1, wild-type FLT3 receptor (Homo sapiens, UniProt P36888)
T1 construct: host or cells: Baf3 (murine B cell lymphoma line), stably transfected
T1 sequence (P36888 27-993): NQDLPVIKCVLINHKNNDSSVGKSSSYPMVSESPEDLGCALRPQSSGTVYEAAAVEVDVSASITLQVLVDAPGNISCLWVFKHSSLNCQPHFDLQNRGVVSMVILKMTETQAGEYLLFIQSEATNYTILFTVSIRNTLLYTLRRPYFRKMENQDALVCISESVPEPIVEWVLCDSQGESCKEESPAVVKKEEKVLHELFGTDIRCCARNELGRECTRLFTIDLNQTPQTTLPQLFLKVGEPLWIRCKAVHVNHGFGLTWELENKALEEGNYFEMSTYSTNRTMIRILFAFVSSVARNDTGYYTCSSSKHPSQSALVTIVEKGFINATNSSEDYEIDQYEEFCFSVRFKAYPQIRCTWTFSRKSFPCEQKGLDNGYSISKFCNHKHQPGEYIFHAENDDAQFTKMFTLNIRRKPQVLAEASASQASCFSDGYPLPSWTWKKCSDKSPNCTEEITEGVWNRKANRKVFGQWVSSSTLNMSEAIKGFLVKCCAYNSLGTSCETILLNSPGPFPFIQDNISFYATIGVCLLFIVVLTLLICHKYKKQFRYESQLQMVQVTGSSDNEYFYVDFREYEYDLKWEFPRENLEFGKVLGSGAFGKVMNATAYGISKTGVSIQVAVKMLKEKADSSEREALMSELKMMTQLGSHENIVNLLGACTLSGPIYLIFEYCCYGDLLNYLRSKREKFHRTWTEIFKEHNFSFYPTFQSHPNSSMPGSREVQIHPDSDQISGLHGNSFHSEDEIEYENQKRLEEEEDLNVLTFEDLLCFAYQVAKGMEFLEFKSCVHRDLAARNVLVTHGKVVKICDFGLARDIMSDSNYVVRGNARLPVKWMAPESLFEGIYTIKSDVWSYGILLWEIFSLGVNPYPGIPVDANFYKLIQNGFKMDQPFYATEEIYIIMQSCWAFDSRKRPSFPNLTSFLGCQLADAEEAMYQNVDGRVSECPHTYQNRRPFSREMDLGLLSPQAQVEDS
Assay: Cell-based FLT3 receptor ELISA (FLT ligand-induced phosphorylation in Baf3 FLT3 cells)
Conditions: 100 ng/mL Flt ligand, uncertainty ±20%
Method in brief: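 Receptor phosphotyrosine measured by sandwich ELISA (anti-FLT3 capture, HRP anti-pTyr, luminescence) in FLT3-transfected murine Baf3 cells given 1 h compound pretreatment and 10 min 100 ng/mL FLT ligand after overnight low-serum starvation; triplicates, IC50 from nonlinear regression.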

| Compound | pIC50 |
| --- | --- |
| CC(C)Oc1ccc(NC(=O)N2CCC(c3ncnc4ccc(N5CCN(C)CC5)cc34)CC2)cc1 [Example 131, 4-[6-(4-Methyl-piperazin-1-yl)-quinazolin-4-yl]-piperidine-1-carboxylic acid (4-isopropoxy-phenyl)-amide] | 6.65 |
| CS(=O)(=O)CCNc1ccc2c(C3CCN(C(=O)Nc4ccc(N5CCOCC5)cc4)CC3)ncnc2c1 [Example 146, 4-[7-(2-Methanesulfonyl-ethylamino)-quinazolin-4-yl]-piperidine-1-carboxylic acid (4-morpholin-4-yl-phenyl)-amide] | 7.06 |
| O=C(CO)N1CCN(c2ccc3c(C4CCN(C(=O)Nc5ccc(N6CCCC6)cc5)CC4)ncnc3c2)CC1 [Compound 201, 4-{7-[4-(2-Hydroxy-acetyl)-piperazin-1-yl]-quinazolin-7-yl}-piperidine-1-carboxylic acid (4-pyrrolidin-1-yl-phenyl)-amide] | 7.19 |
| O=C(Nc1ccc(N2CCOCC2)cc1)N1CCC(c2ncnc3cc(OCCN4CCOC4=O)ccc23)CC1 [Example 148, 4-{7-[2-(2-Oxo-oxazolidin-3-yl)-ethoxy]-quinazolin-4-yl}-piperidine-1-carboxylic acid (4-morpholin-4-yl-phenyl)-amide] | 7.08 |
| COc1cc2ncnc(C3CCN(C(=O)Nc4ccc(OC5CCC5)nc4)CC3)c2cc1OC [Example 17, 4-(6,7-Dimethoxy-quinazolin-4-yl)-piperidine-1-carboxylic acid (6-cyclobutoxy-pyridin-3-yl)-amide] | 6.53 |
| COc1cc2ncnc(C3CCN(C(=O)Nc4ccc(N5CCOCC5)cc4)CC3)c2cc1OC [Example 18, 4-(6,7-Dimethoxy-quinazolin-4-yl)-piperidine-1-carboxylic acid (4-morpholin-4-yl-phenyl)-amide] | 6.98 |
| COc1cc2ncnc(C3CCN(C(=O)Nc4ccc5ncsc5c4)CC3)c2cc1OC [Example 24, 4-(6,7-Dimethoxy-quinazolin-4-yl)-piperidine-1-carboxylic acid benzothiazol-6-ylamide] | 5.59 |
| CC(=O)N1CCC(COc2ccc3c(C4CCN(C(=O)Nc5ccc(N6CCCC6)cc5)CC4)ncnc3c2)CC1 [Example 163, 4-[7-(1-Acetyl-piperidin-4-ylmethoxy)-quinazolin-4-yl]-piperidine-1-carboxylic acid (4-pyrrolidin-1-yl-phenyl)-amide] | 6.93 |
| O=C(Nc1ccc(N2CCOCC2)cc1)N1CCC(c2ncnc3cc(N4CCC[C@H]4CO)ccc23)CC1 [Example 139, (S)-4-[7-(2-Hydroxymethyl-pyrrolidin-1-yl)-quinazolin-4-yl]-piperidine-1-carboxylic acid (4-morpholin-4-yl-phenyl)-amide] | 6.68 |
| CN1CCCN(c2ccc3c(C4CCN(C(=O)Nc5ccc(N6CCOCC6)cc5)CC4)ncnc3c2)CC1 [Example 138, 4-[7-(4-Methyl-[1,4]diazepan-1-yl)-quinazolin-4-yl]-piperidine-1-carboxylic acid (4-morpholin-4-yl-phenyl)-amide] | 6.97 |

Compounds with a higher pIC50, results first:

| pIC50 | Compound |
| --- | --- |
| 7.31 | O=C(Nc1ccc(N2CCCC2)cc1)N1CCC(c2ncnc3cc(N4CCCC4)ccc23)CC1 [Compound 179, 4-(7-Pyrrolidin-1-yl-quinazolin-4-yl)-piperidine-1-carboxylic acid (4-pyrrolidin-1-yl-phenyl)-amide] |
| 7.40 | CCNC(=O)N1CCN(c2ccc3c(C4CCN(C(=O)Nc5ccc(N6CCCC6)cc5)CC4)ncnc3c2)CC1 [Compound 199, 4-{4-[1-(4-Pyrrolidin-1-yl-phenylcarbamoyl)-piperidin-4-yl]-quinazolin-7-yl}-piperazine-1-carboxylic acid ethylamide] |
| 7.57 | O=C(Nc1ccc(N2CCOCC2)cc1)N1CCC(c2ncnc3cc(N4CCC[C@@H]4CO)ccc23)CC1 [Example 132, (R)-4-[7-(2-Hydroxymethyl-pyrrolidin-1-yl)-quinazolin-4-yl]-piperidine-1-carboxylic acid (4-morpholin-4-yl-phenyl)-amide] |
| 7.59 | O=C(Nc1ccc(N2CCOCC2)cc1)N1CCC(c2ncnc3cc(OCCCN4CCOCC4)ccc23)CC1 [Example 133, 4-[7-(3-Morpholin-4-yl-propoxy)-quinazolin-4-yl]-piperidine-1-carboxylic acid (4-morpholin-4-yl-phenyl)-amide] |
| 7.96 | CN1CCN(c2ccc3c(C4CCN(C(=O)Nc5ccc(N6CCCC6)nc5)CC4)ncnc3c2)CC1 [Example 160, 4-[7-(4-Methyl-piperazin-1-yl)-quinazolin-4-yl]-piperidine-1-carboxylic acid (6-pyrrolidin-1-yl-pyridin-3-yl)-amide] |
| 8.22 | O=C(Nc1ccc(N2CCCC2)cc1)N1CCC(c2ncnc3cc(NCCO)ccc23)CC1 [Example 175, 4-[7-(2-Hydroxy-ethylamino)-quinazolin-4-yl]-piperidine-1-carboxylic acid (4-pyrrolidin-1-yl-phenyl)-amide] |
| 8.40 | CN(C)C(=O)N1CCN(CCCOc2ccc3c(C4CCN(C(=O)Nc5ccc(N6CCCC6)cc5)CC4)ncnc3c2)CC1 [Example 165, 4-(3-{4-[1-(4-Pyrrolidin-1-yl-phenylcarbamoyl)-piperidin-4-yl]-quinazolin-7-yloxy}-propyl)-piperazine-1-carboxylic acid dimethylamide] |
| 8.52 | CN(C)[C@@H]1CCN(c2ccc3c(C4CCN(C(=O)Nc5ccc(N6CCCC6)cc5)CC4)ncnc3c2)C1 [Example 149, (R)-4-[7-(3-Dimethylamino-pyrrolidin-1-yl)-quinazolin-4-yl]-piperidine-1-carboxylic acid (4-pyrrolidin-1-yl-phenyl)-amide] |
| 8.70 | O=C(Nc1ccc(N2CCCC2)cc1)N1CCC(c2ncnc3cc(N4CCC4)ccc23)CC1 [Example 173, 4-(7-Azetidin-1-yl-quinazolin-4-yl)-piperidine-1-carboxylic acid (4-pyrrolidin-1-yl-phenyl)-amide] |
| 8.70 | CC(=O)N1CCN(c2ccc3c(C4CCN(C(=O)Nc5ccc(N6CCOCC6)cc5)CC4)ncnc3c2)CC1 [Example 141, 4-[7-(4-Acetyl-piperazin-1-yl)-quinazolin-4-yl]-piperidine-1-carboxylic acid (4-morpholin-4-yl-phenyl)-amide] |
| 9.00 | CN(C)C(=O)N1CCN(c2ccc3c(C4CCN(C(=O)Nc5ccc(N6CCOCC6)cc5)CC4)ncnc3c2)CC1 [Example 143, 4-{4-[1-(4-Morpholin-4-yl-phenylcarbamoyl)-piperidin-4-yl]-quinazolin-7-yl}-piperazine-1-carboxylic acid dimethylamide] |
| 9.00 | O=C(Nc1ccc(N2CCCC2)cc1)N1CCC(c2ncnc3cc(N4CCN(c5ccccn5)CC4)ccc23)CC1 [Compound 192, 4-[7-(4-Pyridin-2-yl-piperazin-1-yl)-quinazolin-4-yl]-piperidine-1-carboxylic acid (4-pyrrolidin-1-yl-phenyl)-amide] |
| 9.00 | O=C(Nc1ccc(N2CCCC2)cc1)N1CCC(c2ncnc3cc(N4CCN(CCO)CC4)ccc23)CC1 [Compound 185, 4-{7-[4-(2-Hydroxy-ethyl)-piperazin-1-yl]-quinazolin-4-yl}-piperidine-1-carboxylic acid (4-pyrrolidin-1-yl-phenyl)-amide] |
| 9.40 | CN1CCN(CCCOc2ccc3c(C4CCN(C(=O)Nc5ccc(N6CCCC6)cc5)CC4)ncnc3c2)CC1 [Example 158, 4-{7-[3-(4-Methyl-piperazin-1-yl)-propoxy]-quinazolin-4-yl}-piperidine-1-carboxylic acid (4-pyrrolidin-1-yl-phenyl)-amide] |
